# Measurements from US20160281050A1, “METHODS FOR TREATING A CULTURE OF HAEMATOCOCCUS PLUVIALIS FOR CONTAMINATION USING SALT AND HYDROGEN PEROXIDE” (HELIAE DEVELOPMENT LLC, priority 2015, published 2016).
# Like-named read-outs stand apart in the source and are kept apart here.
# Tests used:
# pure chytrid culture = assay: Chytrid tolerance: pure chytrid culture in well plate, observed under a microscope (Examples 13-14); format: cell-based
# Method: Experiments were performed to determine chytrid tolerance to bleach, salt, Lufenuron (chemical biocide), and Rid Fungus (blend of natural organic herbs) for evaluation as a treatment for chytrids. A pure chytrid culture in a well plate was treated every 24 hours and observed under a microscope to determine the effect. An untreated culture was used as a control for comparison purposes. Qualitative assessments and quantitative estimates were made by visual observation under a microscope.
# Several concentrations of salt and Rid Fungus (blend of organic herbs) were further investigated as a chytrid treatment, as in Example 13. A pure chytrid culture in a well plate was treated and visually observed under a microscope to determine the effect. An untreated culture was used as a control for comparison purposes.
# [1] = system: Haematococcus pluvialis (Strain 1) green swimmer cells; assay: Commercial scale cultures: lysis, carotenoid content (UV), average growth rate (Example 5); conditions: for Maximum % Lysis of Culture: 0.007 mL/L every six hours
# Description: The findings from the flask test samples were then applied to commercial scale cultures of Haematococcus pluvialis (Strain 1) containing green swimmer cells that were transferred from open raceway pond bioreactor #2310 disposed in a greenhouse, using paddlewheel mixing, and operating in conditions: reactor volume of 55,000 L; Daily PAR of 42 mol m^−2 d^−1; pH of 7.5; and paddlewheel speed of 40%; to open raceway pond bioreactor #2420 disposed in a greenhouse, using paddlewheel mixing, operating in conditions: reactor volume of 140,000 L; Daily PAR of 40 mol m^−2 d^−1; pH of 7.3; and paddlewheel speed of 70%. Similarly, the culture in bioreactor #2320, operating in conditions: reactor volume of 60,000 L; Daily PAR of 42 mol m^−2 d^−1; pH of 7.5; and paddlewheel speed of 40%; was transferred by being split into pond bioreactors #2410 and 2430 operating in conditions: reactor volume of 150,000 L; Daily PAR of 40 mol m^−2 d^−1; pH of 7.3; and paddlewheel speed of 70%. […] Lysis was quantified upon harvest of the culture through visual observation of samples under a microscope. Carotenoid content of the cells was measured by UV method upon harvest, and the average growth rate of the culture was calculated based on periodic dry weight samples. The results were compared to data from previous culture runs in the same bioreactors or bioreactors with similar operating conditions during the same month (September 2014) at the same location.
# [2] = system: Haematococcus pluvialis (Strain 2); assay: % lysis and culture dry weight in flasks (Example 11)
# Description: Culture samples of Haematococcus pluvialis (Strain 2) were collected on the second day of culture from open raceway bioreactor #2410 operating in conditions: reactor volume of 150,000 L; Daily PAR of 9.77 mol m^−2 d^−1; pH of 7.3; and paddlewheel speed of 70%. Culture samples were distributed into flasks for culturing, consisting of duplicate untreated controls and duplicate treatments. […] Samples were taken from the flask cultures daily to quantify % lysis and % chytrid infection and cell dry weight was quantified every other day for a duration of 11 days.
# [3] = system: red cyst cells of Haematococcus pluvialis (Strain 2)
# Method: (§1) The calculated concentrations of the hydrogen peroxide doses tested were 0.0105, 0.0140, 0.0175, 0.0210, and 0.0245 mL/L. The amount of cell lysis was quantified using visual observation under a microscope after 24, 48, and 72 hours.
# [4] = system: Green swimmer cells of Haematococcus pluvialis (Strain 2)
# Method: as §1
# chytrids = assay: % chytrid infection in flask cultures (Example 6); format: cell-based
# Method: A series of experiments were conducted to evaluate the effectiveness of hydrogen peroxide alone and in combination with concentrations of salt as a treatment for controlling chytrid infections in Haematococcus pluvialis cultures. […] Bioreactor #2420 had just been inoculated with cells in the green swimmer stage into reddening conditions that comprised of culture medium comprising a 1 ppt concentration of sodium chloride (NaCl). The flask experiment consisted of duplicate untreated controls and duplicate treatments.
# The flask cultures contained Haematococcus pluvialis (Strain 1) cells in both the green swimmer stage and early red cyst stage.
# The collected samples were inoculated in the green swimmer stage in growth conditions [i.e., in the absence of sodium chloride (NaCl)].
# The culture samples were inoculated in the green swimmer stage in growth conditions [i.e., in less than 1 ppt of sodium chloride (NaCl)].
# The flask cultures were then diluted 1:3 into reddening media comprising 1 ppt NaCl or 2 ppt NaCl (33.3 mL and 66.6 mL culture media).
# [5] = 0.0140 mL/L three times per day, 24 h
# [6] = 0.0140 mL/L three times per day, 48 h
# [7] = 0.0140 mL/L three times per day, 72 h
# [8] = 0.0175 mL/L three times per day, 24 h
# [9] = 0.0175 mL/L three times per day, 48 h
# [10] = 0.0175 mL/L three times per day, 72 h
# [11] = 0.0210 mL/L three times per day, 24 h
# [12] = 0.0210 mL/L three times per day, 48 h
# [13] = 0.0210 mL/L three times per day, 72 h
# [14] = 0.0245 mL/L three times per day, 24 h
# [15] = 0.0245 mL/L three times per day, 48 h
# [16] = 0.0245 mL/L three times per day, 72 h
molecule,measurement,setting,value
"[Cl-].[Na+] [NaCl, sodium chloride]",microscope observation of pure chytrid culture,"pure chytrid culture; Example 13, 20 ppt, after 1 hour",clumped sporangia and zoospores
same,microscope observation of pure chytrid culture,"pure chytrid culture; Example 13, 20 ppt, after 24 hours",Wilting sporangia and no zoospores
same,microscope observation of pure chytrid culture,"pure chytrid culture; Example 13, 20 ppt, after 48 hours",bacteria with shriveled zoospores and sporangia
same,microscope observation of pure chytrid culture,"pure chytrid culture; Example 13, 20 ppt, after 72 hours",no zoospores or sporangia
same,microscope observation of pure chytrid culture,"pure chytrid culture; Example 14, 5 ppt, after 1 hour",a less dense mass of zoospores with some being motile but sluggish
same,microscope observation of pure chytrid culture,"pure chytrid culture; Example 14, 5 ppt, after 4.5 hours",A mix of non-motile and motile zoospores
same,microscope observation of pure chytrid culture,"pure chytrid culture; Example 14, 10 ppt, after 1 hour",a mass of zoospores at the same density as the 5 ppt treatment but with all being non-motile
same,microscope observation of pure chytrid culture,"pure chytrid culture; Example 14, 10 ppt, after 4.5 hours",Non-motile zoospores only
same,microscope observation of pure chytrid culture,"pure chytrid culture; Example 14, 20 ppt, after 1 hour",a mass of zoospores less dense than mass of the 5 and 10 ppt treatments but with all being non-motile
same,microscope observation of pure chytrid culture,"pure chytrid culture; Example 14, 20 ppt, after 4.5 hours",Non-motile zoospores only
hydrogen peroxide [H2O2],Maximum % Lysis of Culture,[1]; Bioreactor 2410,70%
same,Maximum % Lysis of Culture,[1]; Bioreactor 2420,20%
same,Maximum % Lysis of Culture,[1]; Bioreactor 2430,35%
same,reduction of the level of cell lysis,"[1]; at least 0.007 mL/L every 6 hours, flask tests and commercial scale cultures together",at least 60%
same,lysis,[1]; two of the commercial scale cultures treated with hydrogen peroxide,20-35%
same,% Lysis,"[2]; 0.0105 mL/L 1 time daily for 3 days, day 1",5.0 ± 5.0%
same,% Lysis,"[2]; 0.0105 mL/L 1 time daily for 3 days, day 2",3.3 ± 0.0%
same,% Lysis,"[2]; 0.0105 mL/L 1 time daily for 3 days, day 3",7.5 ± 1.2%
same,% Lysis,"[2]; 0.0105 mL/L 1 time daily for 3 days, day 4",0.8 ± 1.2%
same,% Lysis,"[2]; 0.0105 mL/L 1 time daily for 3 days, day 5",5.0 ± 0.0%
same,% Lysis,"[2]; 0.0105 mL/L 1 time daily for 3 days, day 6",4.2 ± 1.2%
same,% Lysis,"[2]; 0.0105 mL/L 1 time daily for 3 days, day 7",1.7 ± 2.4%
same,% Lysis,"[2]; 0.0105 mL/L 1 time every other day, day 1",5.0 ± 5.0%
same,% Lysis,"[2]; 0.0105 mL/L 1 time every other day, day 2",3.3 ± 2.4%
same,% Lysis,"[2]; 0.0105 mL/L 1 time every other day, day 3",4.2 ± 1.2%
same,% Lysis,"[2]; 0.0105 mL/L 1 time every other day, day 4",3.3 ± 0.0%
same,% Lysis,"[2]; 0.0105 mL/L 1 time every other day, day 5",3.3 ± 2.4%
same,% Lysis,"[2]; 0.0105 mL/L 1 time every other day, day 6",3.3 ± 2.4%
same,% Lysis,"[2]; 0.0105 mL/L 1 time every other day, day 7",3.3 ± 0.0%
same,% Lysis,"[2]; 0.0105 mL/L 1 time per day, day 1",5.0 ± 5.0%
same,% Lysis,"[2]; 0.0105 mL/L 1 time per day, day 2",2.5 ± 1.2%
same,% Lysis,"[2]; 0.0105 mL/L 1 time per day, day 3",5.8 ± 3.5%
same,% Lysis,"[2]; 0.0105 mL/L 1 time per day, day 4",4.2 ± 1.2%
same,% Lysis,"[2]; 0.0105 mL/L 1 time per day, day 5",4.2 ± 3.5%
same,% Lysis,"[2]; 0.0105 mL/L 1 time per day, day 6",0.0 ± 0.0%
same,% Lysis,"[2]; 0.0105 mL/L 1 time per day, day 7",2.4 ± 0.0%
same,cell lysis,"[2]; flasks across treatments, 0.0105 mL/L",below 10%
same,% Cell lysis (±1SE),[3]; [5],1.7% ± 1.0%
same,% Cell lysis (±1SE),[3]; [6],0.8% ± 0.8%
same,% Cell lysis (±1SE),[3]; [7],3.3% ± 0.0%
same,% Cell lysis (±1SE),"[3]; 0.0140 mL/L three times per day, 96 h",3.3% ± 1.7%
same,% Cell lysis (±1SE),[3]; [8],1.1% ± 0.6%
same,% Cell lysis (±1SE),[3]; [9],3.3% ± 1.7%
same,% Cell lysis (±1SE),[3]; [10],5.8% ± 5.8%
same,% Cell lysis (±1SE),"[3]; 0.0175 mL/L three times per day, 96 h",5.8% ± 2.5%
same,% Cell lysis (±1SE),[3]; [11],3.9% ± 2.0%
same,% Cell lysis (±1SE),[3]; [12],0.8% ± 0.8%
same,% Cell lysis (±1SE),[3]; [13],1.7% ± 0.0%
same,% Cell lysis (±1SE),"[3]; 0.0210 mL/L three times per day, 96 h",18.3% ± 1.7%
same,% Cell lysis (±1SE),[3]; [14],3.9% ± 0.6%
same,% Cell lysis (±1SE),[3]; [15],5.0% ± 1.7%
same,% Cell lysis (±1SE),[3]; [16],9.2% ± 0.8%
same,% Cell lysis (±1SE),"[3]; 0.0245 mL/L three times per day, 96 h",51.7% ± 5.0%
same,cell lysis level,"[3]; dosages at or above 0.0175 mL/L, after 48-96 hours",above 10%
same,cell lysis level,"[3]; dosages below 0.0175 mL/L, for at least 96 hours",below 10%
same,% Cell lysis (±1SE),"[4]; 0.0105 mL/L three times per day, 24 h",3.3% ± 1.7%
same,% Cell lysis (±1SE),"[4]; 0.0105 mL/L three times per day, 48 h",5.0% ± 1.7%
same,% Cell lysis (±1SE),"[4]; 0.0105 mL/L three times per day, 72 h",3.3% ± 0.0%
same,cell lysis level,"[4]; 0.0105 mL/L, for at least 72 hours",below 10%
same,% Cell lysis (±1SE),[4]; [5],4.2% ± 0.8%
same,% Cell lysis (±1SE),[4]; [6],5.8% ± 2.5%
same,% Cell lysis (±1SE),[4]; [7],9.2% ± 4.2%
same,% Cell lysis (±1SE),[4]; [8],2.5% ± 0.8%
same,% Cell lysis (±1SE),[4]; [9],9.2% ± 2.5%
same,% Cell lysis (±1SE),[4]; [10],13.3% ± 3.3%
same,% Cell lysis (±1SE),[4]; [11],4.2% ± 2.5%
same,% Cell lysis (±1SE),[4]; [12],6.7% ± 1.7%
same,% Cell lysis (±1SE),[4]; [13],20.0% ± 3.3%
same,cell lysis level,"[4]; 0.0210 mL/L, for 48 hours",below 10%
same,% Cell lysis (±1SE),[4]; [14],15.0% ± 0.0%
same,% Cell lysis (±1SE),[4]; [15],22.5% ± 0.8%
same,% Cell lysis (±1SE),[4]; [16],27.5% ± 2.5%
same,reduction in % chytrid infection compared to the control,"chytrids; 4th experiment, starting 5 days after inoculation (144 h)",50-90%
same,Average Chytrid Infection,"chytrids; #2210 samples, absence of NaCl, 0.0075 mL/L two times per day, 0 h",0.0 ± 0.0%
same,Average Chytrid Infection,"chytrids; #2210 samples, absence of NaCl, 0.0075 mL/L two times per day, 24 h",0.0 ± 0.0%
same,Average Chytrid Infection,"chytrids; #2210 samples, absence of NaCl, 0.0075 mL/L two times per day, 48 h",0.0 ± 0.0%
same,Average Chytrid Infection,"chytrids; #2210 samples, absence of NaCl, 0.0075 mL/L two times per day, 96 h",0.0 ± 0.0%
same,Average Chytrid Infection,"chytrids; #2210 samples, absence of NaCl, 0.0075 mL/L two times per day, 120 h",0.0 ± 0.0%
same,Average Chytrid Infection,"chytrids; #2210 samples, absence of NaCl, 0.0075 mL/L two times per day, 144 h",4.2 ± 5.9%
same,Average Chytrid Infection,"chytrids; #2210 samples, absence of NaCl, 0.0075 mL/L two times per day, 168 h",18.3 ± 25.9%
same,Average Chytrid Infection,"chytrids; #2210 samples, absence of NaCl, 0.0075 mL/L two times per day, 192 h",26.6 ± 37.1%
same,Average Chytrid Infection,"chytrids; #2210 samples, absence of NaCl, 0.0075 mL/L two times per day, 264 h",51.7 ± 7.1%
same,Average Chytrid Infection,"chytrids; #2310 samples (4th experiment), 1 ppt NaCl, 0.0075 mL/L 3 times per day, 0 h",0.0 ± 0.0%
same,Average Chytrid Infection,"chytrids; #2310 samples (4th experiment), 1 ppt NaCl, 0.0075 mL/L 3 times per day, 24 h",0.0 ± 0.0%
same,Average Chytrid Infection,"chytrids; #2310 samples (4th experiment), 1 ppt NaCl, 0.0075 mL/L 3 times per day, 48 h",0.0 ± 0.0%
same,Average Chytrid Infection,"chytrids; #2310 samples (4th experiment), 1 ppt NaCl, 0.0075 mL/L 3 times per day, 120 h",1.7 ± 1.7%
same,Average Chytrid Infection,"chytrids; #2310 samples (4th experiment), 1 ppt NaCl, 0.0075 mL/L 3 times per day, 144 h",18.3 ± 18.5%
same,Average Chytrid Infection,"chytrids; #2310 samples (4th experiment), 1 ppt NaCl, 0.0075 mL/L 3 times per day, 168 h",17.2 ± 14.4%
same,Average Chytrid Infection,"chytrids; #2310 samples (4th experiment), 1 ppt NaCl, 0.0075 mL/L 3 times per day, 192 h",32.2 ± 28.1%
same,Average Chytrid Infection,"chytrids; #2310 samples (4th experiment), 1 ppt NaCl, 0.0075 mL/L 3 times per day, 216 h",44.4 ± 46.8%
same,Average Chytrid Infection,"chytrids; #2420 samples, 1 ppt NaCl, 0.0075 mL/L 2-3 times per day, 0 h",0.0 ± 0.0%
same,Average Chytrid Infection,"chytrids; #2420 samples, 1 ppt NaCl, 0.0075 mL/L 2-3 times per day, 24 h",0.0 ± 0.0%
same,Average Chytrid Infection,"chytrids; #2420 samples, 1 ppt NaCl, 0.0075 mL/L 2-3 times per day, 48 h",0.0 ± 0.0%
same,Average Chytrid Infection,"chytrids; #2420 samples, 1 ppt NaCl, 0.0075 mL/L 2-3 times per day, 72 h",0.0 ± 0.0%
same,Average Chytrid Infection,"chytrids; #2420 samples, 1 ppt NaCl, 0.0075 mL/L 2-3 times per day, 144 h",0.0 ± 0.0%
same,Average Chytrid Infection,"chytrids; #2420 samples, 1 ppt NaCl, 0.0075 mL/L 2-3 times per day, 168 h",0.0 ± 0.0%
same,Average Chytrid Infection,"chytrids; #2420 samples, 1 ppt NaCl, 0.0075 mL/L 2-3 times per day, 197 h",0.0 ± 0.0%
same,Average Chytrid Infection,"chytrids; #2420 samples, 1 ppt NaCl, 0.0075 mL/L 2-3 times per day, 217 h",0.0 ± 0.0%
same,Average Chytrid Infection,"chytrids; #2440 samples, 1 ppt salt, 0.0075 mL/L 2-3 times per day, 0 h",0.0 ± 0.0%
same,Average Chytrid Infection,"chytrids; #2440 samples, 1 ppt salt, 0.0075 mL/L 2-3 times per day, 24 h",1.7 ± 2.9%
same,Average Chytrid Infection,"chytrids; #2440 samples, 1 ppt salt, 0.0075 mL/L 2-3 times per day, 96 h",25.0 ± 2.9%
same,Average Chytrid Infection,"chytrids; #2440 samples, 1 ppt salt, 0.0075 mL/L 2-3 times per day, 120 h",51.7 ± 5.0%
same,Average Chytrid Infection,"chytrids; #2440 samples, 1 ppt salt, 0.0075 mL/L 2-3 times per day, 144 h",43.9 ± 4.2%
